Results on 19 molecules are retold here after US8017348B1, “Assay for Parkinson's Disease therapeutics” (Elan Pharma International Limited, priority 2005, dated 2011).

The subject of one series is CFTR. Nature of the series: GFPu assay selectivity screen, cells transfected with CFTR. The format is cell-based. As to conditions: 10 uM to about 78 nM. The text has this: (§1) The first is the RING finger ligase NRDP1 as a molecule structurally and functionally similar to Parkin. The second is the Cystic Fibrosis Transmembrane Conductance Regulator (CFTR) as a molecule that is a twelve-pass membrane channel protein, and structurally not related to Parkin.
(§2) Dose response curves were generated by exposing cells to compounds at various concentrations. […] “Hill” refers to the Hill Slope.

A further series has as its system Parkin. Nature of the series: GFPu assay in HEK293 cells transfected with wild type Parkin (aggresome formation / proteasome function). The format is cell-based, human. To be noted: for aggresome formation (qualitative, GFPu screen): LOPAC screen hits. As for the experimental part:
A summary of the finalized automation scheme is outlined in FIG. 12. Briefly, cells were manually transfected with Parkin using the Fugene Reagent (Roche) and then incubated for three hours at 37° C. […] Compounds were then added to the cell plate at a final concentration of 10 uM using the Multimek™ Automated Pipettor. Compounds were incubated with cells for 45 hours at 37° C. and then the media was gently aspirated with the Multimek. A mixture of 1 ug/ml Hoechst dye and 4% paraformaldehyde were then added to the cells for 40 minutes at room temperature using the Titertek Multidrop™ Lab System. Cell plates were subsequently washed using the Tecan PowerWasher and then read on the Cellomcis ArrayScan. A detailed protocol outlining this process step by step is shown in Example 8.
This example describes a protocol for the GFPu Assay in 96-well format. It will be appreciated that the protocol can be readily modified for other multi-well formats and that certain parameters can vary. […] Dose-response curves are generated using methods known in the art. Typically, serial 2-fold or 3-fold dilutions (usually in the range 10 uM to 50 pM) are tested.
1) HEK293 cells stably expressing GFP are cultured in DMEM containing 10% FBS, glutamine 2 mM and G418 sulfate at 600 μg/ml.
2) HEK 293 cells are harvested using PBS containing 5 mM EDTA. 180 μl of HEK293 cells at 67,000 cells/ml are then plated onto Costar PDL coated plates (#3667). After seeding cells on the plate, we let them sit for 30 minutes at room temperature in the tissue culture hood before placing them back into the incubator. This treatment may help reduce edge effects and is optional.
3) Incubate the plate overnight at 37° C./5% CO2 in the incubator.
4) A typical transfection cocktail is created as follows: Mix 50 ml of serum free DMEM with 1.087 ml of Fugene and wait 5 minutes at room temperature. Next add 375 μg of Parkin DNA or control vector, gently mix and incubate 35-45 minutes at room temperature.
5) Add 20 μl of transfection cocktail to each well of the plate and place back in the incubator for three hours at 37° C.
6) Add 20 μl of compound to all relevant wells. Final in-well concentration for compound is 10 μM. The DMSO concentration final in-well is 0.2%. Compound plates are diluted using serum free DMEM.
7) Plates are then incubated for 45 hours at 37° C. and 5% CO2.
8) Aspirate media out of wells.
9) Add […] a mixture containing 1 μg/ml Hoechst dye and 4% paraformaldehyde in 0.1M NaPhosphate buffer for 40 minutes at room temperature.
10) Wash with PBS containing calcium and magnesium and leave 200 μl in well.
11) Read on the ArrayScan using the Target Activation Bioapplication. […]
as §2

The test system of another series is HEK293 cells. The series is described as follows: Cytotoxicity (cell count) in HEK293 cells. As to conditions: for cytotoxicity: HEK293 cells. The text has this:
In terms of charactering cytotoxicity, compounds were given a low rating if the cell count was >75% of control levels, a medium rating if the cell count was between 50 and 75% of control wells, and a high rating if the cell count was less than 50% of control levels.

The test system of a further series is NRDP1. The series is described as follows: GFPu assay selectivity screen, cells transfected with NRDP1. The series is classed as cell-based. To be noted: for IC50: GFPu assay, NRDP1 transfected cells, 10 uM to about 78 nM, read-out: NRDP IC50.
Source text: as §1, §2

The subject of the next series is aggresome formation. To be noted: Johnston et al., 1998; cited from earlier work.
Where [1] appears, read: Homo sapiens, HEK293, GFPu assay, Parkin transfected cells, eight 2-fold dilutions 10 uM to about 78 nM, read-out: Parkin IC50.
The mark [2] stands for this setting: Homo sapiens, Parkin expressing HEK293 cells, read-out: IC50 in the GFPu assay.
Setting [3] is: dose response, eight 2-fold dilutions 10 uM to about 78 nM.
Setting [4] is: Parkin expressing HEK293 cells, read-out: IC50 in the GFPu assay.

Like-named read-outs stand apart in the source and are kept apart here.

What is called IC50 is the concentration needed to halve the response being measured. On to `O=C1c2c(O)ccc(O)c2C(=O)c2c(NCCNCCO)ccc(NCCNCCO)c21` [ELN476491, mitoxantrone], for which the IC50 is 1.58 µM with CFTR, less than 0.078 µM in the series with Parkin (setting [1]), less than 0.078 µM in the series with Parkin (setting [2]) and 1.5 µM in the series with NRDP1. The molecule further registered a TC50 with HEK293 cells (human) of 6.53 µM.
Take `COc1cc([C@@H]2c3cc4c(cc3[C@H](O)[C@H]3COC(=O)[C@H]23)OCO4)cc(OC)c1OC` [ELN476767, podophyllotoxin]: the IC50 in the series on CFTR was more than 10 µM; in the series on Parkin (setting [1]), less than 0.078 µM; in the series with Parkin (setting [2]), less than 0.078 µM; in the series on NRDP1 it was more than 10 µM. In the series with Parkin, the “aggresome formation (qualitative, GFPu screen)” value is given as “inhibitors of aggresome formation”. The same molecule had a TC50 in the series on HEK293 cells (setting [3]) of less than 0.078.
Turning to `CC[C@]1(O)C[C@@H]2CN(CCc3c([nH]c4ccccc34)[C@@](C(=O)OC)(c3cc4c(cc3OC)N(C)[C@H]3[C@@](O)(C(=O)OC)[C@H](OC(C)=O)[C@]5(CC)C=CCN6CC[C@]43[C@@H]65)C2)C1` [vinblastine], in the series on aggresome formation, the “aggresome formation (literature)” value was “completely abrogated aggresome formation”.
Consider `CC[C@]1(O)C[C@H]2CN(CCc3c([nH]c4ccccc34)[C@@](C(=O)OC)(c3cc4c(cc3OC)N(C=O)[C@H]3[C@@](O)(C(=O)OC)[C@H](OC(C)=O)[C@]5(CC)C=CCN6CC[C@]43[C@@H]65)C2)C1` [ELN477063, vincristine], for which the IC50 in the series on CFTR is more than 10 µM; in the series on Parkin (setting [1]), less than 0.078 µM; in the series with NRDP1 it was more than 10 µM. Besides, the “aggresome formation (qualitative, GFPu screen)” value in the series on Parkin is recorded as “inhibitors of aggresome formation”. The same molecule had a TC50 in the series with HEK293 cells (human) of less than 0.078 µM.
As to `Cc1ccc(S(=O)(=O)N[C@@H](Cc2ccccc2)C(=O)CCl)cc1` [ELN477056, TPCK], the results for the IC50 with CFTR, in the series on Parkin (setting [4]) and in the series with NRDP1 were more than 10 µM, 9.25 µM and 5.47 µM, respectively. Besides, in the series with HEK293 cells (setting [3]), the TC50 is on record as more than 10.
Take `O=C(O)CCCc1ccc(N(CCCl)CCCl)cc1` [ELN29018, chlorambucil]: the IC50 in the series with CFTR is more than 10 µM; with Parkin (setting [1]), 7.25 µM. In the series with Parkin, the “aggresome formation (qualitative, GFPu screen)” value is reported as “decreased aggresome formation”. In addition, the “cytotoxicity” value in the series with HEK293 cells is listed as “did not exhibit much cytotoxicity”. In the series with HEK293 cells (setting [3]), this molecule yielded a TC50 of more than 10. For the same molecule, the “NRDP % @ 10” value in the series on NRDP1 (@ 10) came to 32% @ 10.
For `CC(=O)O[C@H]1C(=O)[C@@]2(C)[C@H]([C@H](OC(=O)c3ccccc3)[C@]3(O)C[C@H](OC(=O)[C@H](O)[C@@H](NC(=O)c4ccccc4)c4ccccc4)C(C)=C1C3(C)C)[C@]1(OC(C)=O)CO[C@@H]1C[C@@H]2O` [ELN476780, taxol], the IC50 with CFTR was more than 10 µM; in the series on Parkin (setting [1]) it was less than 0.156 µM; in the series with Parkin (setting [2]), less than 0.078 µM; in the series on NRDP1, more than 10 µM. Also, the “aggresome formation (qualitative, GFPu screen)” value in the series with Parkin is listed as “inhibitors of aggresome formation”. Besides, the TC50 in the series with HEK293 cells (human) was less than 0.078 µM.
As for `CC[C@]1(O)C[C@@H]2CN(CCc3c([nH]c4ccccc34)[C@@](C(=O)OC)(c3cc4c(cc3OC)N(C)[C@H]3[C@@](O)(C(=O)OC)[C@H](OC(C)=O)[C@]5(CC)C=CCN6CC[C@]43[C@@H]65)C2)C1` [ELN477062, vinblastine], the IC50 is more than 10 µM with CFTR, less than 0.078 µM in the series on Parkin (setting [1]) and more than 10 µM with NRDP1. In the series on Parkin, the “aggresome formation (qualitative, GFPu screen)” value was “inhibitors of aggresome formation”. In the series on HEK293 cells (human), this molecule returned a TC50 of less than 0.078 µM.
On to `COC(=O)Nc1nc2ccc(C(=O)c3cccs3)cc2[nH]1` [nocodazol], for which the “aggresome formation (literature)” value in the series with aggresome formation is “completely abrogated aggresome formation”.
Take `O=C(N[C@@H](Cc1ccccc1)C(=O)CCl)OCc1ccccc1` [ELN476309, ZPCK]: the IC50 is 3.88 µM in the series on CFTR; 4.12 µM in the series on Parkin (GFPu assay, Parkin transfected cells, eight 2-fold dilutions 10 uM to about 78 nM, read-out: Parkin IC50); 4.1 µM in the series with Parkin (setting [4]); 0.26 µM with NRDP1. In the series with HEK293 cells, this molecule yielded a TC50 of 10 µM.
The inhibition is the drop in the measured response relative to a control, in per cent. Low values mean a response near the control, high ones a response far below the control. For `O=c1c(O)c(-c2cc(O)c(O)c(O)c2)oc2cc(O)cc(O)c12` [ELN476493, myricetin], the IC50 in the series with CFTR, in the series on Parkin (setting [1]) and with NRDP1 was more than 10 µM throughout. In the series on Parkin (Homo sapiens, HEK293, at 10 μM, LOPAC screen), this molecule displayed an inhibition at 10 µM of 59%. Further, in the series with Parkin (dose-response curve follow-up, 40% inhibition threshold), the “% inhibition upon dose-response curve follow-up” value is reported as less than 40%. The same molecule came in with a TC50 in the series with HEK293 cells (human) of more than 10 µM.
Turning to `COc1cc2c(c(OC)c1OC)-c1ccc(OC)c(=O)cc1[C@@H](NC(C)=O)CC2` [colchicine], the “aggresome formation (literature)” value in the series with aggresome formation is on record as “completely abrogated aggresome formation”.
Turning to `Nc1ncn([C@@H]2O[C@H](CO)[C@@H](O)[C@H]2O)c(=O)n1` [ELN476201, 5-azacytidine], the IC50 in the series on CFTR was more than 10 µM; in the series on Parkin (setting [1]) it was 5.36 µM; in the series on Parkin (setting [2]), 5.36 µM; in the series with NRDP1, 5.81 µM. This molecule also returned a TC50 in the series with HEK293 cells (human) of more than 10 µM.
In the case of `COc1cc2c(c(OC)c1OC)-c1ccc(OC)c(=O)cc1[C@@H](NC(C)=O)CC2` [ELN476311, colchicine], the “aggresome formation (qualitative, GFPu screen)” value with Parkin is given as “inhibitors of aggresome formation”. This molecule returned a TC50 with HEK293 cells (setting [3]) of less than 0.078.
As to `CN(Cc1cnc2nc(N)nc(N)c2n1)c1ccc(C(=O)N[C@@H](CCC(=O)O)C(=O)O)cc1` [ELN476809, methotrexate], the IC50 in the series with CFTR was more than 10 µM; in the series on Parkin (setting [1]), less than 0.078 µM; with Parkin (setting [2]) it was less than 0.078 µM; in the series with NRDP1, 0.156 µM. For the same molecule, in the series on HEK293 cells (human), the TC50 is more than 10 µM.
In the case of `COC(=O)Nc1nc2ccc(C(=O)c3cccs3)cc2[nH]1` [ELN475312, nocodazol], the IC50 in the series on CFTR is more than 10 µM; in the series on Parkin (setting [1]), 1.07 µM; in the series on NRDP1 it was more than 10 µM. In addition, the “aggresome formation (qualitative, GFPu screen)” value with Parkin is “inhibitors of aggresome formation”. Also, the TC50 with HEK293 cells (human) is less than 0.078 µM.
As for `COC[C@H]1OC(=O)c2coc3c2[C@@]1(C)C1=C(C3=O)[C@@H]2CCC(=O)[C@@]2(C)C[C@H]1OC(C)=O` [ELN476646, Wortmannin], the IC50 in the series on CFTR is more than 10 µM; in the series on Parkin (setting [1]), 0.75 µM; in the series on Parkin (setting [2]), 0.75 µM; in the series with NRDP1, more than 10 µM. This molecule also came in with a TC50 in the series on HEK293 cells (human) of 1.9 µM.
As to `N[C@@H](Cc1ccc(N(CCCl)CCCl)cc1)C(=O)O` [ELN476469, melphalan], the IC50 was more than 10 µM in the series with CFTR, 6.06 µM in the series on Parkin (setting [1]) and more than 10 µM in the series with NRDP1. Also, the “aggresome formation (qualitative, GFPu screen)” value with Parkin was “decreased aggresome formation”. Further, in the series with HEK293 cells, the “cytotoxicity” value is on record as “did not exhibit much cytotoxicity”. Further, the TC50 with HEK293 cells (setting [3]) was more than 10.
With `O=c1[nH]cc(F)c(=O)[nH]1` [ELN29019, 5-fluoruracil], the IC50 in the series with CFTR is more than 10 µM; with Parkin (setting [4]) it was 9 µM; in the series on NRDP1, 1.6 µM. Moreover, the TC50 in the series on HEK293 cells is more than 10 µM.
